In patent US20210122739A1, “NOVEL SULFONAMIDE CARBOXAMIDE COMPOUNDS” (Inflazome Limited, priority 2017, published 2021):

Experiments:
NLRP3 [1] = molecular target: T1, NLRP3 (Homo sapiens, UniProt Q96P20); experiment: THP-1 cells pyroptosis assay; type: cell-based; design: Seed THP-1 cells (25,000 cells/well) containing 1.0 μg/ml LPS; host or cells: THP-1 cells, LPS-primed, nigericin-stimulated; settings: 1.0 μg/ml LPS, nigericin 5 μM, resazurin readout
In short: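 THP-1 cells (25,000/well, serum-free RPMI) primed with 1 μg/ml LPS were given compound (8-point half-log series, top 10 μM; 0.1% DMSO) for 3 h at 37 °C, then 5 μM nigericin for 1 h. Viability read by 100 μM resazurin fluorescence (Ex 560/Em 590) after 1–2 h; IC50 from four-parameter nonlinear regression.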

NLRP3 [2] = molecular target: T1, NLRP3; experiment: Human whole blood IL1β release assay; type: cell-based; design: Plate out 80 μl of whole blood containing 1 μg/ml of LPS; from tissue; host or cells: human whole blood from healthy donors, LPS-primed, nigericin-stimulated; settings: 1 μg/ml LPS, nigericin 10 μM, IL-1β by AlphaLisa, read-out: HWB IC50
Protocol: For systemic delivery, the ability to inhibit NLRP3 when the compounds are present within the bloodstream is of great importance. For this reason, the NLRP3 inhibitory activity of a number of compounds in human whole blood was investigated in accordance with the following protocol.
Human whole blood in Li-heparin tubes was obtained from healthy donors from a volunteer donor panel. • 1. Plate out 80 μl of whole blood containing 1 μg/ml of LPS in 96-well, clear bottom cell culture plate (Corning #3585) • 2. Add 10 μl compound (8 points half-log dilution with 10 μM top dose) or vehicle (DMSO 0.1% FAC) to the appropriate wells • 3. Incubate for 3 hrs at 37° C., 5% CO2 • 4. Add 10 μl Nigericin (Sigma #N7143) (10 μM FAC) to all wells • 5. Incubate for 1 hr at 37° C., 5% CO2 • 6. At the end of the incubation period, spin plates at 300×g for 5 mins to pellet cells and remove 20 μl of supernatant and add to 96-well v-bottom plates for IL-1β analysis (note: these plates containing the supernatants can be stored at −80° C. to be analysed at a later date) • 7. IL-1β was measured according to the manufacturer protocol (Perkin Elmer-AlphaLisa IL-1 Kit AL220F-5000) • 8. IC50 data is fitted to anon-linear regression equation (log inhibitor vs response-variable slope 4-parameters)

[3] = PK protocol: pharmacokinetic parameters in male Sprague Dawley rats; type: in vivo; settings: plasma, rat; for Vd: read-out: Vdss
Protocol: Pharmacokinetic parameters were determined in male Sprague Dawley rats (Charles River, UK, 250-350 g; or Vital River Laboratory Animal Technology Co Ltd, Beijing, China, 7-9 weeks old). Animals were individually housed during the study and maintained under a 12 h light/dark cycle. Animals had free access to food and water except that some orally dosed animals were food deprived overnight prior to the study.
For intravenous administration, compounds were formulated as a solution in water or DMSO:PBS [10:90] in 2 mL/kg dosing volume and administered via tail vein. For oral administration, compounds were formulated as a solution in water or DMSO:water [10:90] in 5 mL/kg dosing volume and administered orally.
Serial blood samples (about 120-300 μL) were taken from each animal at each of 8 time-points post dose (0.083, 0.25, 0.5, 1, 2, 4, 8 and 24 h) or at each of 12 time-points post dose (0.03, 0.1, 0.17, 0.25, 0.5, 1, 2, 4, 6, 8, 12 and 24 h) or pre-dose and at each of 9 time-points post dose (0.25, 0.5, 1, 2, 4, 6, 8, 12 and 24 h). Samples were held on ice for no longer than 30 minutes before centrifugation (10,000 rpm (8,385 g) for 3 minutes; or 5,696 rpm (3,000 g) for 15 minutes) for plasma generation. Plasma was frozen on dry ice prior to bioanalysis. PK parameters were generated from LC-MS/MS data using Dotmatics or Phoenix WinNonlin 6.3 software.

[4] = intravenous administration, dose per compound in Dose column (0.83-5.05 mg/kg)
[5] = oral administration, dose per compound in Dose column (3 or 5 mg/kg)

T1 sequence (Q96P20 whole entry): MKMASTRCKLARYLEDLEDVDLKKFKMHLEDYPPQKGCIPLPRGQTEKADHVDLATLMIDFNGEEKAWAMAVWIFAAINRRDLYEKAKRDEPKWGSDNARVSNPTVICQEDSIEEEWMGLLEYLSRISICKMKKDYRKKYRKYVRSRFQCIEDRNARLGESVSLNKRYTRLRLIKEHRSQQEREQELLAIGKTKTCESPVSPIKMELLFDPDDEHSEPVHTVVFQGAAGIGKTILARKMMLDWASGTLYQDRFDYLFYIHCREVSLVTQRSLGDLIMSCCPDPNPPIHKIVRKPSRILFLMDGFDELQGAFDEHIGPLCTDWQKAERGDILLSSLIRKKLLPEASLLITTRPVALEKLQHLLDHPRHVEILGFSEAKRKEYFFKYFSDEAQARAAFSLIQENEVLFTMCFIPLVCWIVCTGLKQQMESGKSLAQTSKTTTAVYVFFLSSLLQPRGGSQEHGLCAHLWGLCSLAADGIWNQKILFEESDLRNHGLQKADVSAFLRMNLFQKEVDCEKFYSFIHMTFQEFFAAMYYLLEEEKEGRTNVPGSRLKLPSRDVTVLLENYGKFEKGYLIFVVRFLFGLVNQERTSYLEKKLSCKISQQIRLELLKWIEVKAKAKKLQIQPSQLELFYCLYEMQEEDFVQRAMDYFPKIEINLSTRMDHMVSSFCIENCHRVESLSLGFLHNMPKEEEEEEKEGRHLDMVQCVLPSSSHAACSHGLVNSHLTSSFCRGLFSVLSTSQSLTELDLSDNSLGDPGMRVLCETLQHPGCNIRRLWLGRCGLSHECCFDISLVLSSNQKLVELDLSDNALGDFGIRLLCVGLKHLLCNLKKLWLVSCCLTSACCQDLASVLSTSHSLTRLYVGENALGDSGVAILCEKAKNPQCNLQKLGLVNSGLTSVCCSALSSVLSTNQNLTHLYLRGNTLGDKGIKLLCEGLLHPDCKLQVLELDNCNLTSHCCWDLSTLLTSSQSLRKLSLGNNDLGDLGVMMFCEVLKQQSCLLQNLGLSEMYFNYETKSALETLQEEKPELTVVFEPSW

Row | Compound | IC50 (NLRP3 [1]) [nM] | IC50 (NLRP3 [2]) [nM] | AUC [3, 4] [ng·h/mL] | clearance [3, 4] [mL/min/kg] | half-life [3, 4] [h] | Vd [3, 4] [L/kg] | CL/F [3, 5] [mL/min/kg] | Tmax [3, 5] [h] | bioavailability [3, 5] [%] | half-life [3, 5] [h] | AUC [3, 5] [ng·h/mL] | Cmax [3, 5] [ng/mL]
1 | COCCN(C)C(=O)c1cc(S(=O)(=O)NC(=O)Nc2c3c(cc4c2CCC4)CCC3)nn1C [Example 27, 3-(N-((1,2,3,5,6,7-Hexahydro-s-indacen-4-yl)carbamoyl)sulfamoyl)-N-(2-methoxyethyl)-N,1-dimethyl-1H-pyrazole-5-carboxamide] | 40 to 160 | 400 to 800 |  |  |  |  | 21.5 | 0.08 | 67 | 4.9 |  | 
2 | CC(C)n1nc(S(=O)(=O)NC(=O)Nc2c3c(cc4c2CCC4)CCC3)cc1C(=O)N1CCC1 [Example 31, 5-(Azetidine-1-carbonyl)-N-((1,2,3,5,6,7-hexahydro-s-indacen-4-yl)carbamoyl)-1-isopropyl-1H-pyrazole-3-sulfonamide] | 40 to 160 | 800 to 1600 | 303 | 55.3 | 1.6 | 1.66 |  |  |  |  |  | 
3 | CC(C)c1cc(F)cc(C(C)C)c1NC(=O)NS(=O)(=O)c1cc(C(=O)N(C)C)n(C)n1 [Example 60, 3-(N-((4-Fluoro-2,6-diisopropylphenyl)carbamoyl)sulfamoyl)-N,N,1-trimethyl-1H-pyrazole-5-carboxamide] | 160 to 640 | < 400 | 283 | 59.2 | 3.3 | 4.08 | 110 | 0.17 | 54.3 | 9.7 | 770 | 495
4 | CC(C)c1cc(F)cc(C(C)C)c1NC(=O)NS(=O)(=O)c1cc(C(=O)N2CCC2)n(C)n1 [Example 45, 5-(Azetidine-1-carbonyl)-N-((4-fluoro-2,6-diisopropylphenyl)carbamoyl)-1-methyl-1H-pyrazole-3-sulfonamide] | 40 to 160 | < 400 | 415 | 40.3 | 6.4 | 7.96 |  |  |  |  |  | 
5 | CNC(=O)Cn1ccc(S(=O)(=O)NC(=O)Nc2c3c(cc4c2CCC4)CCC3)n1 [Example 2, 2-(3-(N-((1,2,3,5,6,7-Hexahydro-s-indacen-4-yl)carbamoyl)sulfamoyl)-1H-pyrazol-1-yl)-N-methylacetamide] | 160 to 640 | 1600 to 3200 |  |  |  |  |  |  |  |  |  | 
6 | CC(C)c1cc(Cl)cc(C(C)C)c1NC(=O)NS(=O)(=O)c1cc(C(=O)N(C)CCO)n(C)n1 [Example 74, 3-(N-((4-Chloro-2,6-diisopropylphenyl)carbamoyl)sulfamoyl)-N-(2-hydroxyethyl)-N,1-dimethyl-1H-pyrazole-5-carboxamide] | 40 to 160 | 800 to 1600 |  |  |  |  |  |  |  |  |  | 
7 | CC(C)c1ccc(C(C)C)c(NC(=O)NS(=O)(=O)c2cc(C(=O)N(C)C)n(C)n2)c1 [Example 44, 3-(N-((2,5-Diisopropylphenyl)carbamoyl)sulfamoyl)-N,N,1-trimethyl-1H-pyrazole-5-carboxamide] | 160 to 640 | 3200 to 10000 |  |  |  |  |  |  |  |  |  | 
8 | CNC(=O)c1cc(S(=O)(=O)NC(=O)Nc2c(C(C)C)cc(F)cc2C(C)C)nn1C [Example 50, 3-(N-((4-Fluoro-2,6-diisopropylphenyl)carbamoyl)sulfamoyl)-N,1-dimethyl-1H-pyrazole-5-carboxamide] | 160 to 640 | < 400 |  |  |  |  |  |  |  |  |  | 

Results, then the compound that gave them:

Row | IC50 (NLRP3 [1]) [nM] | IC50 (NLRP3 [2]) [nM] | AUC [3, 4] [ng·h/mL] | clearance [3, 4] [mL/min/kg] | half-life [3, 4] [h] | Vd [3, 4] [L/kg] | CL/F [3, 5] [mL/min/kg] | Tmax [3, 5] [h] | bioavailability [3, 5] [%] | half-life [3, 5] [h] | AUC [3, 5] [ng·h/mL] | Cmax [3, 5] [ng/mL] | Compound
9 | 40 to 160 | 400 to 800 | 1720 | 25 | 0.1 | 0.24 |  |  |  |  |  |  | CCN(C)C(=O)c1cc(S(=O)(=O)NC(=O)Nc2c3c(cc4c2CCC4)CCC3)nn1C [Example 62, N-Ethyl-3-(N-((1,2,3,5,6,7-hexahydro-s-indacen-4-yl)carbamoyl)sulfamoyl)-N,1-dimethyl-1H-pyrazole-5-carboxamide]
10 | 40 to 160 | < 400 | 3390 | 24.8 | 25.3 | 17.8 | 49.5 | 0.25 | 62 | 3.4 | 1050 | 600 | CN(C)C(=O)c1cc(S(=O)(=O)NC(=O)Nc2c3c(cc4c2CCC4)CCC3)nn1C [Example 69, 3-(N-((1,2,3,5,6,7-Hexahydro-s-indacen-4-yl)carbamoyl)sulfamoyl)-N,N,1-trimethyl-1H-pyrazole-5-carboxamide]
11 | 40 to 160 | 1600 to 3200 | 353 | 161 | 1.3 | 10.6 |  |  |  |  |  |  | CC(C)c1cc(Cl)cc(C(C)C)c1NC(=O)NS(=O)(=O)c1cc(C(=O)N(C)C)n(C)n1 [Example 68, 3-(N-((4-Chloro-2,6-diisopropylphenyl)carbamoyl)sulfamoyl)-N,N,1-trimethyl-1H-pyrazole-5-carboxamide]
12 | 160 to 640 | < 400 | 334 | 48.7 | 0.5 | 0.99 |  |  |  |  |  |  | CC(C)c1cccc(C(C)C)c1NC(=O)NS(=O)(=O)c1cc(C(=O)N(C)C)n(C)n1 [Example 67, 3-(N-((2,6-Diisopropylphenyl)carbamoyl)sulfamoyl)-N,N,1-trimethyl-1H-pyrazole-5-carboxamide]
13 | < 40 | < 400 |  |  |  |  |  |  |  |  |  |  | COc1cc(-c2ccc3c(c2NC(=O)NS(=O)(=O)c2cc(C(=O)N(C)C)n(C)n2)CCC3)ccn1 [Example 82, 3-(N-((5-(2-Methoxypyridin-4-yl)-2,3-dihydro-1H-inden-4-yl)carbamoyl)sulfamoyl)-N,N,1-trimethyl-1H-pyrazole-5-carboxamide]
